Residues, ends and D or L forms follow the SMILES beside them.
System: normal human epidermal keratinocytes (NHEKs)
Assay: LDH release cytotoxicity assay in keratinocytes
Type: cell-based
Conditions: minimal concentration giving 50% LDH release by NHEKs
Text: Since LL-34 was the minimal truncation mutant of LL-37 that retained both antimicrobial and immune modulatory activity, we prepared a series of synthetic peptides with sequential substitutions of alanine at each amino acid position of the LL-34 parent peptide (Table 1). We compared the minimum inhibitory concentration (MIC) for the LL-34 parent peptide and the alanine mutants (LL-34 peptides—L1A and R34A) against methicillin-resistant Staphylococcus aureus strain USA300 (Fig. 1A). LL-34 peptides were incubated at concentrations of 0 to 100 μM with bacteria. The minimal concentration at which no growth was observed was noted after 18 h of incubation. […] Because of these changes in the MIC against S. aureus between the mutants, we investigated the effective toxicity profile of the peptides in normal human epidermal keratinocytes (NHEKs) by lactate dehydrogenase (LDH) release assay (Table 1). […] Most other peptides were cytotoxic at a minimal concentration of 10 μM, whereas LL-34—K15A was toxic at a concentration of 2.5 μM.
LDH cytotoxicity assay was performed according to manufacturer's instructions (Thermo Fisher Scientific). Culture supernatants from keratinocytes were used fresh for LDH assay after experimental treatments.

Row | Compound | Minimal cytotoxic concentration in NHEK (LD50)
1 | CC[C@H](C)[C@H](NC(=O)[C@H](CCCCN)NC(=O)[C@H](CCC(=O)O)NC(=O)[C@H](CCCCN)NC(=O)[C@H](CO)NC(=O)[C@H](CCCCN)NC(=O)[C@H](CCCNC(=N)N)NC(=O)[C@H](Cc1ccccc1)NC(=O)[C@H](Cc1ccccc1)NC(=O)[C@H](CC(=O)O)NC(=O)CNC(=O)[C@H](CC(C)C)NC(=O)[C@H](C)N)C(=O)NCC(=O)N[C@@H](CCCCN)C(=O)N[C@@H](CCC(=O)O)C(=O)N[C@@H](Cc1ccccc1)C(=O)N[C@@H](CCCCN)C(=O)N[C@@H](CCCNC(=N)N)C(=O)N[C@H](C(=O)N[C@H](C(=O)N[C@@H](CCC(N)=O)C(=O)N[C@@H](CCCNC(=N)N)C(=O)N[C@H](C(=O)N[C@@H](CCCCN)C(=O)N[C@@H](CC(=O)O)C(=O)N[C@@H](Cc1ccccc1)C(=O)N[C@@H](CC(C)C)C(=O)N[C@@H](CCCNC(=N)N)C(=O)N[C@@H](CC(N)=O)C(=O)N[C@@H](CC(C)C)C(=O)N[C@H](C(=O)N1CCC[C@H]1C(=O)N[C@@H](CCCNC(=N)N)C(=O)O)C(C)C)[C@@H](C)CC)C(C)C)[C@@H](C)CC [LL-34—L1A] (H-ALGDFFRKSKEKIGKEFKRIVQRIKDFLRNLVPR-OH; N-terminus and C-terminus assumed) | 5 µM
2 | CC[C@H](C)[C@H](NC(=O)[C@H](CCCCN)NC(=O)[C@H](C)NC(=O)[C@H](CCCCN)NC(=O)[C@H](CO)NC(=O)[C@H](CCCCN)NC(=O)[C@H](CCCNC(=N)N)NC(=O)[C@H](Cc1ccccc1)NC(=O)[C@H](Cc1ccccc1)NC(=O)[C@H](CC(=O)O)NC(=O)CNC(=O)[C@H](CC(C)C)NC(=O)[C@@H](N)CC(C)C)C(=O)NCC(=O)N[C@@H](CCCCN)C(=O)N[C@@H](CCC(=O)O)C(=O)N[C@@H](Cc1ccccc1)C(=O)N[C@@H](CCCCN)C(=O)N[C@@H](CCCNC(=N)N)C(=O)N[C@H](C(=O)N[C@H](C(=O)N[C@@H](CCC(N)=O)C(=O)N[C@@H](CCCNC(=N)N)C(=O)N[C@H](C(=O)N[C@@H](CCCCN)C(=O)N[C@@H](CC(=O)O)C(=O)N[C@@H](Cc1ccccc1)C(=O)N[C@@H](CC(C)C)C(=O)N[C@@H](CCCNC(=N)N)C(=O)N[C@@H](CC(N)=O)C(=O)N[C@@H](CC(C)C)C(=O)N[C@H](C(=O)N1CCC[C@H]1C(=O)N[C@@H](CCCNC(=N)N)C(=O)O)C(C)C)[C@@H](C)CC)C(C)C)[C@@H](C)CC [LL-34—E11A] (H-LLGDFFRKSKAKIGKEFKRIVQRIKDFLRNLVPR-OH; N-terminus and C-terminus assumed) | 5 µM
3 | CC[C@H](C)[C@H](NC(=O)[C@H](CCCCN)NC(=O)[C@H](CCC(=O)O)NC(=O)[C@H](CCCCN)NC(=O)[C@H](CO)NC(=O)[C@H](CCCCN)NC(=O)[C@H](CCCNC(=N)N)NC(=O)[C@H](Cc1ccccc1)NC(=O)[C@H](Cc1ccccc1)NC(=O)[C@H](CC(=O)O)NC(=O)CNC(=O)[C@H](CC(C)C)NC(=O)[C@@H](N)CC(C)C)C(=O)NCC(=O)N[C@@H](CCCCN)C(=O)N[C@@H](CCC(=O)O)C(=O)N[C@@H](Cc1ccccc1)C(=O)N[C@@H](CCCCN)C(=O)N[C@@H](CCCNC(=N)N)C(=O)N[C@H](C(=O)N[C@H](C(=O)N[C@@H](CCC(N)=O)C(=O)N[C@@H](CCCNC(=N)N)C(=O)N[C@H](C(=O)N[C@@H](CCCCN)C(=O)N[C@@H](CC(=O)O)C(=O)N[C@@H](Cc1ccccc1)C(=O)N[C@@H](CC(C)C)C(=O)N[C@@H](CCCNC(=N)N)C(=O)N[C@@H](C)C(=O)N[C@@H](CC(C)C)C(=O)N[C@H](C(=O)N1CCC[C@H]1C(=O)N[C@@H](CCCNC(=N)N)C(=O)O)C(C)C)[C@@H](C)CC)C(C)C)[C@@H](C)CC [LL-34—N30A] (H-LLGDFFRKSKEKIGKEFKRIVQRIKDFLRALVPR-OH; N-terminus and C-terminus assumed) | 10 µM
4 | CC[C@H](C)[C@H](NC(=O)[C@H](CCCCN)NC(=O)[C@H](CCC(=O)O)NC(=O)[C@H](CCCCN)NC(=O)[C@H](CO)NC(=O)[C@H](CCCCN)NC(=O)[C@H](CCCNC(=N)N)NC(=O)[C@H](Cc1ccccc1)NC(=O)[C@H](Cc1ccccc1)NC(=O)[C@H](CC(=O)O)NC(=O)[C@H](C)NC(=O)[C@H](CC(C)C)NC(=O)[C@@H](N)CC(C)C)C(=O)NCC(=O)N[C@@H](CCCCN)C(=O)N[C@@H](CCC(=O)O)C(=O)N[C@@H](Cc1ccccc1)C(=O)N[C@@H](CCCCN)C(=O)N[C@@H](CCCNC(=N)N)C(=O)N[C@H](C(=O)N[C@H](C(=O)N[C@@H](CCC(N)=O)C(=O)N[C@@H](CCCNC(=N)N)C(=O)N[C@H](C(=O)N[C@@H](CCCCN)C(=O)N[C@@H](CC(=O)O)C(=O)N[C@@H](Cc1ccccc1)C(=O)N[C@@H](CC(C)C)C(=O)N[C@@H](CCCNC(=N)N)C(=O)N[C@@H](CC(N)=O)C(=O)N[C@@H](CC(C)C)C(=O)N[C@H](C(=O)N1CCC[C@H]1C(=O)N[C@@H](CCCNC(=N)N)C(=O)O)C(C)C)[C@@H](C)CC)C(C)C)[C@@H](C)CC [LL-34—G3A] (H-LLADFFRKSKEKIGKEFKRIVQRIKDFLRNLVPR-OH; N-terminus and C-terminus assumed) | 20 µM
5 | CC[C@H](C)[C@H](NC(=O)[C@H](CCCCN)NC(=O)[C@H](CCC(=O)O)NC(=O)[C@H](CCCCN)NC(=O)[C@H](CO)NC(=O)[C@H](CCCCN)NC(=O)[C@H](CCCNC(=N)N)NC(=O)[C@H](Cc1ccccc1)NC(=O)[C@H](Cc1ccccc1)NC(=O)[C@H](CC(=O)O)NC(=O)CNC(=O)[C@H](CC(C)C)NC(=O)[C@@H](N)CC(C)C)C(=O)NCC(=O)N[C@@H](CCCCN)C(=O)N[C@@H](C)C(=O)N[C@@H](Cc1ccccc1)C(=O)N[C@@H](CCCCN)C(=O)N[C@@H](CCCNC(=N)N)C(=O)N[C@H](C(=O)N[C@H](C(=O)N[C@@H](CCC(N)=O)C(=O)N[C@@H](CCCNC(=N)N)C(=O)N[C@H](C(=O)N[C@@H](CCCCN)C(=O)N[C@@H](CC(=O)O)C(=O)N[C@@H](Cc1ccccc1)C(=O)N[C@@H](CC(C)C)C(=O)N[C@@H](CCCNC(=N)N)C(=O)N[C@@H](CC(N)=O)C(=O)N[C@@H](CC(C)C)C(=O)N[C@H](C(=O)N1CCC[C@H]1C(=O)N[C@@H](CCCNC(=N)N)C(=O)O)C(C)C)[C@@H](C)CC)C(C)C)[C@@H](C)CC [LL-34—E16A] (H-LLGDFFRKSKEKIGKAFKRIVQRIKDFLRNLVPR-OH; N-terminus and C-terminus assumed) | 5 µM
6 | CC[C@H](C)[C@H](NC(=O)[C@H](CCCCN)NC(=O)[C@H](CCC(=O)O)NC(=O)[C@H](CCCCN)NC(=O)[C@H](C)NC(=O)[C@H](CCCCN)NC(=O)[C@H](CCCNC(=N)N)NC(=O)[C@H](Cc1ccccc1)NC(=O)[C@H](Cc1ccccc1)NC(=O)[C@H](CC(=O)O)NC(=O)CNC(=O)[C@H](CC(C)C)NC(=O)[C@@H](N)CC(C)C)C(=O)NCC(=O)N[C@@H](CCCCN)C(=O)N[C@@H](CCC(=O)O)C(=O)N[C@@H](Cc1ccccc1)C(=O)N[C@@H](CCCCN)C(=O)N[C@@H](CCCNC(=N)N)C(=O)N[C@H](C(=O)N[C@H](C(=O)N[C@@H](CCC(N)=O)C(=O)N[C@@H](CCCNC(=N)N)C(=O)N[C@H](C(=O)N[C@@H](CCCCN)C(=O)N[C@@H](CC(=O)O)C(=O)N[C@@H](Cc1ccccc1)C(=O)N[C@@H](CC(C)C)C(=O)N[C@@H](CCCNC(=N)N)C(=O)N[C@@H](CC(N)=O)C(=O)N[C@@H](CC(C)C)C(=O)N[C@H](C(=O)N1CCC[C@H]1C(=O)N[C@@H](CCCNC(=N)N)C(=O)O)C(C)C)[C@@H](C)CC)C(C)C)[C@@H](C)CC [LL-34—S9A] (H-LLGDFFRKAKEKIGKEFKRIVQRIKDFLRNLVPR-OH; N-terminus and C-terminus assumed) | 5 µM
7 | CC[C@H](C)[C@H](NC(=O)[C@H](CCCCN)NC(=O)[C@H](CCC(=O)O)NC(=O)[C@H](CCCCN)NC(=O)[C@H](CO)NC(=O)[C@H](CCCCN)NC(=O)[C@H](C)NC(=O)[C@H](Cc1ccccc1)NC(=O)[C@H](Cc1ccccc1)NC(=O)[C@H](CC(=O)O)NC(=O)CNC(=O)[C@H](CC(C)C)NC(=O)[C@@H](N)CC(C)C)C(=O)NCC(=O)N[C@@H](CCCCN)C(=O)N[C@@H](CCC(=O)O)C(=O)N[C@@H](Cc1ccccc1)C(=O)N[C@@H](CCCCN)C(=O)N[C@@H](CCCNC(=N)N)C(=O)N[C@H](C(=O)N[C@H](C(=O)N[C@@H](CCC(N)=O)C(=O)N[C@@H](CCCNC(=N)N)C(=O)N[C@H](C(=O)N[C@@H](CCCCN)C(=O)N[C@@H](CC(=O)O)C(=O)N[C@@H](Cc1ccccc1)C(=O)N[C@@H](CC(C)C)C(=O)N[C@@H](CCCNC(=N)N)C(=O)N[C@@H](CC(N)=O)C(=O)N[C@@H](CC(C)C)C(=O)N[C@H](C(=O)N1CCC[C@H]1C(=O)N[C@@H](CCCNC(=N)N)C(=O)O)C(C)C)[C@@H](C)CC)C(C)C)[C@@H](C)CC [LL-34—R7A] (H-LLGDFFAKSKEKIGKEFKRIVQRIKDFLRNLVPR-OH; N-terminus and C-terminus assumed) | 5 µM

Source: publication PMC8214221, “Sequence determinants in the cathelicidin LL-37 that promote inflammation via presentation of RNA to scavenger receptors” (The Journal of Biological Chemistry, 2021)
